Source: patent publication US9486434B2, “Method for delivery and use of isothiocyanates for prophylaxis and/or therapy of bladder cancer” (Health Research Inc., priority 2010, dated 2016)
Like-named read-outs stand apart in the source and are kept apart here.

Tests used:
[1] = system: rat bladder cancer AY-27 cells; test: MTT cell growth and proliferation assay, AY-27 cells; format: cell-based; settings: Rattus norvegicus, read-out: IC50, inhibition of cell proliferation
Procedure: (§1) FIG. 3. The effect of AITC on cell survival and proliferation. AITC was evaluated at the indicated concentrations in human bladder cancer UM-UC-3 cells, rat bladder cancer AY-27 cells, and normal human bladder epithelial cells (HUC). A. Cell growth inhibition, measured by MTT assay, 72-h AITC treatment. IC50 was calculated from nonlinear regression curve fit. B. Cell cycle arrest (□, subG1; ? , G1; ? , 5; ▪, G2/M), measured by flow cytometry, 24 h AITC treatment. C. Apoptosis induction, measured by an ELISA assay, 24 h AITC treatment. Mean±SE, n=3-6), *P<0.05.
(§2) FIG. 10. The effect of NAC-AITC on cell survival and proliferation. NAC-AITC was evaluated in both UM-UC-3 cells and AY-27 cells. (A) Chemical structures of AITC and NAC-AITC. (B) Cell growth and proliferation, measured by 3-([…])-2,5-diphenyltetrazolium bromide assay, 72 h treatment with AITC or NAC-AITC at indicated concentrations. IC50 was calculated from the non-linear regression curve fit. (C) Apoptosis, measured by an enzyme-linked immunosorbent assay, 24 h NAC-AITC treatment at 15 µM. (D) Cell cycle (open bars, G1; shaded bars, S; closed bars, G2/M), measured by flow cytometry, 24 h NAC-AITC treatment at 15 μM. *P<, 0.005, compared with control.
Assays for cell proliferation, cell cycle arrest and apoptosis. To determine the antiproliferative activity of NAC-AITC, AY-27 cells were grown in 96-well microtiter plates ([…] with 0.15 ml medium per well) for 24 h and then grown for 72 h in fresh medium (0.2 ml/well) containing a series of concentrations of NAC-AITC or solvent. Cell growth was measured at the end of treatment using the 3-([…])-2,5-diphenyltetrazolium bromide assay, from which the half maximal inhibitory concentration (IC50) of NAC-AITC was calculated. AITC was also evaluated for comparison.

[2] = system: normal human bladder epithelial cells (HUC); test: Cell cycle arrest and apoptosis in HUC; format: cell-based; settings: 7.5 and/or 15 microM
Procedure: as §1

UM-UC-3 cells = test: Apoptosis induction ELISA (histone-associated DNA), UM-UC-3 cells; format: cell-based, human; settings: 24 h
Procedure: as §1, §2
The effect of NAC-AITC on cell cycle progression was measured by flow cytometry as described previously. […]

[3] = system: orthotopic AY-27 bladder tumor; test: Orthotopic rat bladder cancer model; format: in vivo, rat (female F344); settings: for tumor-bearing bladders showing muscle invasion: control 71%
Description: FIG. 6. […] Female F344 rats were inoculated intravesically with bladder cancer AY-27 cells to initiate development of orthotopic bladder tumor. Oral administration of AITC at 0, 10, 25, 50 and 300 micromols/kg once daily was started 1 day after AY-27 cell inoculation and ended 3 weeks later. The number of rats per group varied from 6 to 33; some of the data, particularly the control group (n=33) and the group treated with the lowest dose of AITC (n=23), were pooled from several experiments. A. The initial and final body weights. B. The weights of bladder tumors. […] C. Percentage of bladders where the tumor invaded the muscle tissue. D. H/E staining of the normal rat bladder wall (D1), a superficial rat bladder tumor (D2), and a rat bladder tumor that invaded the muscle layer (D3).
FIG. 8. […] Female F344 rats were inoculated with AY-27 cells intravesically via a urethra catheter to initiate development of orthotopic bladder cancer. Oral administration of MSP-1 of vehicle (water) once daily was started 1 day after cancer cell inoculation and ended 3 weeks later. The number of rats per group varied from 11-29. A. Initial (□) and final (▪) body weights. […] Each value in A and B is mean±SEM. C. Percentage of bladder where the tumor invaded the muscle tissue. D. The effects of MSP-1 on selected anticancer targets in UM-UC-3 cells (in vitro), AY-27 cells (in vitro) and AY-27 tumors (in vivo). […] The bladder tumors were removed from rats treated with MSP-1 at the sinigrin doses of 9 or 90 micromols/kg once daily for 3 weeks, started 1 day after cancer cell inoculation. Cell lysates and tumor homogenates were analyzed by Western blotting, using GAPDH as a loading control.
FIG. 9. […] Female F344 rats were inoculated with bladder cancer AY-27 cells to initiate development of orthotopic bladder tumor. Oral administration of the powder (sinigrin and glucoraphanin: each at 10 micromols/kg) once daily was started 1 day after AY-27 cell inoculation and ended 3 weeks later. The number of rats per group was 9-10. Each value is mean±SE.
FIG. 12. […] Bladder cancer was initiated in female F344 rats by orthotopic inoculation of bladder cancer AY-27 cells. Oral administration of NAC-AITC at 10 μmmol/kg body wt once daily was started 1 day after cancer cell inoculation and ended 3 weeks later. There were 23 rats in the control group and 15 rats in the treatment group. (A) The initial (open bars) and final (closed bars) body weight. (B) Bladder tumor weight. Each value is a mean±SE. (C) Percentage of bladders where the tumor invaded the muscle tissue.
AITC was evaluated in an orthotopic rat bladder cancer model. […] Daily oral administration of AITC was initiated one day after instillation of AY-27 cells and continued for 3 weeks. AITC was evaluated at 4 dose levels: 10, 25, 50 and 300 micromols/kg. […] FIG. 6D depicts representative images of normal rat bladder wall (D1), a superficial AY-27 rat bladder tumor (D2), and a muscle-invasive AY-27 rat bladder tumor (D3).
A syngeneic orthotopic rat bladder cancer model.

[4] = 10 μmol/kg body wt oral once daily, 3 weeks

For C=CCN=C=S [AITC, allyl isothiocyanate], the IC50 ([1]; AY-27, 72 h) was 3.3 µM, the “cell cycle arrest and apoptosis in HUC” value [2] was “failed to cause cell cycle arrest and apoptosis” and the “increase in cytoplasmic levels of histone-associated DNA” value (UM-UC-3 cells; AITC) was “up to 3.9 fold”. For the same compound, the “inhibition of muscle invasion” value [3, 4] was 73%, the “inhibition of tumor growth” value [3, 4] was 30% and the “tumor-bearing bladders showing muscle invasion” value ([3]; AITC 10 micromols/kg) was 18.9%. The “tumor-bearing bladders showing muscle invasion” value ([3]; AITC 25 micromols/kg) was 27%, the “tumor-bearing bladders showing muscle invasion” value ([3]; AITC 50 or 300 micromols/kg) was 50% and the “inhibition of orthotopic bladder cancer growth” value ([3]; AITC 300 micromols/kg oral daily, 3 weeks) was 20%. The “inhibition of tumor growth” value ([3]; AITC lower dose levels (10, 25, 50 micromols/kg) oral daily, 3 weeks) was 30%.

With C=CCNC(=S)SC[C@H](NC(C)=O)C(=O)O [NAC-AITC, N-acetyl-S—(N-allylthiocarbamoyl)cysteine] the IC50 ([1]; AY-27, Example 9, 72 h treatment) was 9.1 µM, the “increase in apoptotic activity” value (UM-UC-3 cells; 15 μM) was 8.8 fold and the “inhibition of muscle invasion” value [3, 4] was 49%. The “inhibition of tumor growth” value [3, 4] was 40%, the “effect on body weight” value ([3]; NAC-AITC 10 μmol/kg daily, 3 weeks) was “no significant effect on body weight” and the “bladders with muscle invasion” value ([3]; NAC-AITC 10 μmol/kg, control 79%) was 30%.
